Data published in the NIST ThermoML archive (doi:10.1016/j.jct.2012.05.023).

Legend:
[1] = refractive index (Na D-line) (dimensionless); xn = mol fraction of the nth substance listed; conditions: 101.3 kPa, Liquid, Standard Abbe refractometry
[2] = xn = mol fraction of the nth substance listed; conditions: 101.3 kPa, Liquid; for speed of sound: Sing-around technique in a fixed-path interferometer; for mass density: Vibrating tube method

c1ccc2c(c1)CCCC2 [1,2,3,4-tetrahydronaphthalene] + CCCCCCCCCCCC
Conditions	mass density, 293.15 K [kg/m3]	refractive index, 293.15 K	refractive index, 303.15 K	refractive index, 313.15 K	refractive index, 323.15 K	refractive index, 333.15 K	refractive index, 343.15 K	speed of sound, 293.15 K [m/s]	speed of sound, 303.15 K [m/s]
[1], x1 = 0.1021	–	1.42964	1.42538	1.42102	1.4166	1.41223	1.4078	–	–
[1], x1 = 0.2015	–	1.43768	1.43335	1.42887	1.42456	1.42011	1.41563	–	–
[1], x1 = 0.307	–	1.44691	1.44249	1.43817	1.43374	1.42925	1.42483	–	–
[1], x1 = 0.3998	–	1.45578	1.45151	1.44709	1.44258	1.43819	1.43363	–	–
[1], x1 = 0.4985	–	1.46621	1.46183	1.45748	1.45304	1.44856	1.44396	–	–
[1], x1 = 0.5961	–	1.47773	1.47333	1.46884	1.46437	1.45998	1.45528	–	–
[1], x1 = 0.7019	–	1.49155	1.48719	1.48267	1.47817	1.47364	1.46911	–	–
[1], x1 = 0.8012	–	1.5062	1.50172	1.49723	1.49269	1.48822	1.48355	–	–
[1], x1 = 0.8998	–	1.52267	1.51815	1.51359	1.50898	1.5043	1.49932	–	–
[1], x1 = 1	–	1.54155	1.53687	1.53216	1.52752	1.52274	1.51795	–	–
[2], x1 = 0.1021	763.04	–	–	–	–	–	–	1308.1	1269.8
[2], x1 = 0.2015	777.99	–	–	–	–	–	–	1318.1	1280
[2], x1 = 0.307	795.31	–	–	–	–	–	–	1331.6	1293.4
[2], x1 = 0.3998	811.97	–	–	–	–	–	–	1344	1306
[2], x1 = 0.4985	831.41	–	–	–	–	–	–	1359.7	1321.7
[2], x1 = 0.5961	852.66	–	–	–	–	–	–	1377	1339
[2], x1 = 0.7019	878.22	–	–	–	–	–	–	1399.4	1361.2
[2], x1 = 0.8012	905.15	–	–	–	–	–	–	1423.8	1385.4
[2], x1 = 0.8998	935.03	–	–	–	–	–	–	1453.4	1414.7
[2], x1 = 1	969.52	–	–	–	–	–	–	1489.5	1450.1
